These results are taken from PMC10892041, “Vanadium Complexes with Thioanilide Derivatives of Amino Acids: Inhibition of Human Phosphatases and Specificity in Various Cell Models of Metabolic Disturbances” (Pharmaceuticals, 2024).

pIC50: −log10 of the molar value. Where two headings read alike, the source gives them in different places.

Usually pIC50 stands for −log10 of the IC50, conventionally taken in molar units.

For one series, the system named is myocytes C2C12. Put plainly: Viability of myocytes C2C12 after 24 h incubation (resazurin-based reagent). As to conditions: 50 µM; 24 h incubation; control solvent only. On the technique in general: The colour change of resazurin is a common sign of viable cells or microbes.
The next series has as its system adipocytes 3T3-L1. Put plainly: Scintillation proximity assay, transport of [14C]-deoxy-D-glucose into adipocytes 3T3-L1. The settings on record: 50 µM. It is filed as cell-based, mouse. The protocol:
Adipocytes 3T3-L1 cell line (ATCC CRL-11605) derived from fibroblasts from mouse embryo tissue were cultured according to standard protocol in DMEM medium supplemented with 10% bovine calf serum, 100 IU/mL penicillin, and […] streptomycin at 37 °C in 5% CO2. Cells were seeded in 96-well poly-D-lysine-coated plates and cultured to reach confluency.
Scintillation proximity assay (SPA) is a method to measure the real-time accumulation of radiolabeled substrates by adherent cells with no filtration needed. Radioactivity concentrated closer to the scintillator embedded in the plastic bottom of each well provides a stronger signal than the radiolabeled substrate in the culture medium. Uptake of radiolabeled 2-deoxy-D-[U-14C]-glucose was conducted based on previous descriptions.
Adipocytes were washed and the medium was changed to the basal medium. After 24 h incubation, the tested complexes were added. After 2 h incubation at 37 °C in 5% CO2, the medium was changed to DMEM medium without glucose, with 0.1% BSA free from fatty acid, […] L-glutamine, and […] pyruvate. The tested complexes were added again, and further incubation for 4 h was conducted.
For cells proceeded as above, 2-deoxy-D-[U-14C]-glucose (250–350 mCi/mmol, NEC720A, PerkinElmer) solution in KRB with a total activity of 0.03 mCi was added to each well. […] Non-specific radioactivity was subtracted from each result (cpm). Two independent experiments with triplicates were conducted.

A further series deals with T1, PTP1B (Homo sapiens, UniProt P18031).
T1 construct: purchased Sigma-Aldrich
T1 sequence (P18031 1-435): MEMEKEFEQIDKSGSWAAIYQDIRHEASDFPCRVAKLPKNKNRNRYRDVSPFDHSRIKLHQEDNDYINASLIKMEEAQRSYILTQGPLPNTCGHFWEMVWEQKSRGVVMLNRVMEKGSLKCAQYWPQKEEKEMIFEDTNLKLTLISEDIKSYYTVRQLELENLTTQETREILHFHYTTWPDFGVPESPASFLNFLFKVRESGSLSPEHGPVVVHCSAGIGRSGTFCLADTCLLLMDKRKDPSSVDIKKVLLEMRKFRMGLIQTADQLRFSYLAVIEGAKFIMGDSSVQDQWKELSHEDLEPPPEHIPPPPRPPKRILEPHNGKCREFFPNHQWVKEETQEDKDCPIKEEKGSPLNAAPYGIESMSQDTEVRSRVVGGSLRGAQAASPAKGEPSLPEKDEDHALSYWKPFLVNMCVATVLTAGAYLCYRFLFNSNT
The settings on record: cited from earlier work.

For `Cc1occc(=O)c1[O-].Cc1occc(=O)c1[O-].[O]=[V+2]` [BMOV, bis(maltolato)oxidovanadium(IV), reference compound], the “Cell viability of myocytes C2C12, % of the control” value in the series with myocytes C2C12 was 90 ± 4%. The “Transport of [14C]-deoxy-D-glucose into 3T3-L1 adipocytes, % of control” value in the series with adipocytes 3T3-L1 is “low activity”.

As for `O=S(=O)([O-])[O-].[O]=[V+2]` [VOSO4, reference compound], in the series with adipocytes 3T3-L1, the “Transport of [14C]-deoxy-D-glucose into 3T3-L1 adipocytes, % of control” value is on record as “low activity”. In addition, the pIC50 on PTP1B (lower end of published range) is 7.74; on PTP1B (upper end of published range) it was 6.42.
